Source: PubChem BioAssay (NCI)
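Five compound concentrations were applied to cells in 96-well plates for 48 hours; endpoints were derived by simple linear interpolation of the resulting dose-response curve. Definition used: TGI = concentration required for complete inhibition of growth.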

Assays:
Assay in all cases: NCI anticancer screen, dose series, 48 h
T-47D breast = system: T-47D breast
786-0 renal = system: 786-0 renal
EKVX NSCLC = system: EKVX NSCLC
M14 melanoma = system: M14 melanoma
SR leukemia = system: SR leukemia
HL-60(TB) leukemia = system: HL-60(TB) leukemia
OVCAR-3 ovarian = system: OVCAR-3 ovarian
SK-OV-3 ovarian = system: SK-OV-3 ovarian
LOX IMVI melanoma = system: LOX IMVI melanoma
OVCAR-4 ovarian = system: OVCAR-4 ovarian

O=S1(=O)c2cnccc2NC(=NCc2cccc3ccccc23)N1c1ccccc1
TGI (T-47D breast): > 100 µM | TGI (786-0 renal): 74.7 µM | TGI (EKVX NSCLC): > 100 µM | TGI (M14 melanoma): > 100 µM | TGI (SR leukemia): > 100 µM | TGI (HL-60(TB) leukemia): > 53.7 µM | TGI (OVCAR-3 ovarian): > 100 µM | TGI (SK-OV-3 ovarian): > 100 µM | TGI (LOX IMVI melanoma): > 100 µM | TGI (OVCAR-4 ovarian): > 100 µM

COc1ccc(/C=C2/C(C)=NN(c3cccc(Cl)c3)/C2=N/c2nc3ccccc3s2)cc1
TGI (T-47D breast): > 100 µM | TGI (786-0 renal): 38.1 µM | TGI (EKVX NSCLC): 83.1 µM | TGI (M14 melanoma): 60.8 µM | TGI (SR leukemia): 62.6 µM | TGI (HL-60(TB) leukemia): 51.4 µM | TGI (OVCAR-3 ovarian): 48.8 µM | TGI (SK-OV-3 ovarian): 63.7 µM | TGI (LOX IMVI melanoma): 33.4 µM | TGI (OVCAR-4 ovarian): > 100 µM

COc1ccc(C2c3cc4c(cc3C(O)C3CCC(=O)N23)OCO4)cc1 (stereo not given)
TGI (T-47D breast): > 100 µM | TGI (786-0 renal): > 100 µM | TGI (EKVX NSCLC): > 100 µM | TGI (M14 melanoma): > 100 µM | TGI (SR leukemia): > 100 µM | TGI (HL-60(TB) leukemia): > 100 µM | TGI (OVCAR-3 ovarian): > 100 µM | TGI (SK-OV-3 ovarian): > 100 µM | TGI (LOX IMVI melanoma): > 100 µM | TGI (OVCAR-4 ovarian): > 100 µM

CCOC(=O)c1ccc(C(=O)OCC)n1-c1cc2cc(c1)CSCc1cc(cc(-n3c(C(=O)OCC)ccc3C(=O)OCC)c1)CSC2
TGI (T-47D breast): > 10 µM | TGI (786-0 renal): > 10 µM | TGI (EKVX NSCLC): > 10 µM | TGI (M14 melanoma): > 10 µM | TGI (SR leukemia): > 10 µM | TGI (HL-60(TB) leukemia): > 10 µM | TGI (OVCAR-3 ovarian): > 10 µM | TGI (SK-OV-3 ovarian): > 10 µM | TGI (LOX IMVI melanoma): > 10 µM | TGI (OVCAR-4 ovarian): > 10 µM

Cc1nc2sc(CCl)nn2c(=O)c1Cl
TGI (T-47D breast): 28.3 µM | TGI (786-0 renal): 22.4 µM | TGI (EKVX NSCLC): 27.7 µM | TGI (M14 melanoma): 26.9 µM | TGI (SR leukemia): 26.2 µM | TGI (HL-60(TB) leukemia): 29.8 µM | TGI (OVCAR-3 ovarian): 29.5 µM | TGI (SK-OV-3 ovarian): 28.1 µM | TGI (LOX IMVI melanoma): 7.34 µM | TGI (OVCAR-4 ovarian): 29.7 µM

Cc1ccc(NCC2CC/C(=C\c3ccc(Cl)cc3)C2=O)cc1 (stereo not given)
TGI (T-47D breast): 46.5 µM | TGI (786-0 renal): 11.3 µM | TGI (EKVX NSCLC): > 100 µM | TGI (M14 melanoma): 28.9 µM | TGI (SR leukemia): > 24 µM | TGI (HL-60(TB) leukemia): 13.7 µM | TGI (OVCAR-3 ovarian): 29.1 µM | TGI (SK-OV-3 ovarian): > 100 µM | TGI (LOX IMVI melanoma): 19 µM | TGI (OVCAR-4 ovarian): > 80.7 µM

O=C1c2cc3c(cc2CC12Cc1cc4c(cc1C2=O)CCCC4)CCCC3
TGI (T-47D breast): 89.1 µM | TGI (786-0 renal): 52.4 µM | TGI (EKVX NSCLC): > 100 µM | TGI (M14 melanoma): > 100 µM | TGI (SR leukemia): > 100 µM | TGI (HL-60(TB) leukemia): > 100 µM | TGI (OVCAR-3 ovarian): 93.7 µM | TGI (SK-OV-3 ovarian): > 100 µM | TGI (LOX IMVI melanoma): > 100 µM | TGI (OVCAR-4 ovarian): 46.7 µM

O=C(O)C1CC2C3CCC2C1C3=O (stereo not given)
TGI (T-47D breast): > 100 µM | TGI (786-0 renal): > 100 µM | TGI (EKVX NSCLC): > 100 µM | TGI (M14 melanoma): > 100 µM | TGI (SR leukemia): > 100 µM | TGI (HL-60(TB) leukemia): > 100 µM | TGI (OVCAR-3 ovarian): > 100 µM | TGI (SK-OV-3 ovarian): > 100 µM | TGI (LOX IMVI melanoma): > 100 µM | TGI (OVCAR-4 ovarian): > 100 µM

COc1ccc(OC)c2sc(N3C(=O)/C(=C/Cc4ccco4)N=C3c3ccccc3)nc12
TGI (T-47D breast): 79.8 µM | TGI (786-0 renal): > 100 µM | TGI (EKVX NSCLC): > 100 µM | TGI (M14 melanoma): > 100 µM | TGI (SR leukemia): 43.9 µM | TGI (HL-60(TB) leukemia): 37.9 µM | TGI (OVCAR-3 ovarian): > 100 µM | TGI (SK-OV-3 ovarian): > 100 µM | TGI (LOX IMVI melanoma): 70 µM | TGI (OVCAR-4 ovarian): > 100 µM
